Experimental data from US9079853B2, “Isatin compounds, compositions and methods for treatment of degenerative diseases and disorders” (MUSC FOUNDATION FOR RESEARCH DEVELOPMENT, priority 2013, dated 2015).

Legend:
661W or C6 cells [1] = assay: MTT assay, protection against calcium-ionophore A23187; type: cell-based; details: 1 μM A23187, 24 h
Experimental: The compound 3-(4,5-Dimethylthiazol-2-yl)-2,5-diphenyltetrazolium bromide (MTT) is a tetrazolium ion that is reduced to a blue formazan dye via several families of NAD(P)H-dependent oxidoreductases. Formation of the formazan dye from MTT or other related tetrazolium dyes are commonly used as a viability assay even though, in fact, the assay is a metabolic capacity assay.
In this assay, 661W or C6 cells were maintained in DMEM supplemented with 10% FBS. 100 μL of 70,000 cells/mL cells were seeded into each well of 96 well plates using DMEM supplemented with 5% FBS. Cells were then allowed to grow to confluency for 48 hours. The compounds of the invention were added in 2 μL media and calcium-ionophore A23187 was then added in 1 μL for a final concentration of 1 μM and after 24 h, 20 μL of […] MTT were added to each well and the cells were incubated for another 4 h after which 100 μL of 1% SDS in 0.01M aqueous HCl were added to each well and the plates were incubated overnight. Absorbance was measured at […] (background correction). The 1 μM ionophore A23187 caused about 50% loss in MTT signal at 24 h. Protection was calculated as the increase in absorbance of treatment groups normalized to the vehicle control.

661W or C6 cells [2] = assay: XF FCCP-uncoupled oxygen consumption rate assay (IBMX challenge); type: cell-based; details: 1 h pretreatment, 600 μM IBMX, 24 h, read-out: XF FCCP OCR (% Ctrl); for activity at 0.001 µM: compound 1 nM; for activity at 0.0008 µM: compound 800 pM; for activity at 0.01 µM: compound 10 nM;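 on all read-outs here: values normalized to the vehicle control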
Experimental: The XF FCCP-uncoupled oxygen consumption rate assay assesses mitochondrial capacity by measuring cellular respiration. It was shown that the maximum FCCP-uncoupled oxygen consumption rate (OCR) was a good estimate of maximal mitochondrial capacity (Beeson 2010) and that IBMX treatment of 661W or C6 cells for 24 h caused a loss in maximal uncoupled OCR (Perron 2013). Thus, cells were pretreated with the exemplified compounds for 1 h, added 600 μM IBMX and then measured the uncoupled rate after 24 h. In brief, the OCR measurements were performed using a Seahorse Bioscience XF instrument (Seahorse Bioscience, Billerica, Md.), as previously published (Perron 2013). O2 leakage through the plastic sides and bottom of the plate was accounted for using the AKOS algorithm in the XF software package. Cells were plated on 96- or 24-well custom plates designed for use in the XF and grown to confluency in DMEM+5% FBS (48 h). The medium was then replaced with DMEM+1% FBS for 24 h, along with any treatments.

Compound	MTT, % protection (661W or C6 cells [1]; compound 1 nM)	activity at 0.001 µM (661W or C6 cells [2])	further results
CCCCN1C(=O)C(Cc2c[nH]c3ccccc23)(OC(=O)c2ccccc2)c2ccccc21 (stereo not drawn) [Example 65, 3-((1H-indol-3-yl)methyl)-1-butyl-2-oxoindolin-3-yl benzoate]			MTT, % protection (661W or C6 cells [1]; compound 500 pM): 135%,; activity at 0.0005 µM (661W or C6 cells [2]; compound 500 pM): 61%
COc1cc(CC2(OC(=O)c3ccccc3)C(=O)N(CCc3ccccc3)c3ccc(C)cc32)cc(OC)c1 (stereo not drawn) [Example 39, 3-(3,5-dimethoxybenzyl)-5-methyl-2-oxo-1-phenethylindolin-3-yl benzoate]	83.2%,	66%	
CCCN1C(=O)C(O)(Cc2ccc(OC)cn2)c2cc(C)ccc21 (stereo not drawn) [Example 6, 3-hydroxy-3-((5-methoxypyridin-2-yl)methyl)-5-methyl-1-propylindolin-2-one]			MTT, % protection (661W or C6 cells [1]; compound 500 pM): 68.8%,; activity at 0.0008 µM (661W or C6 cells [2]): 67%
COc1cc(CC2(O)C(=O)N(CC(C)C)c3ccc(C)cc32)cc(OC)c1OC (stereo not drawn) [Example 37, 3-hydroxy-1-isobutyl-5-methyl-3-(3,4,5-trimethoxybenzyl)indolin-2-one]		65%	MTT, % protection (661W or C6 cells [1]; compound 800 pM): 68.4%,
CCCN1C(=O)C(O)(CC(=O)c2ccccn2)c2cc(Cl)ccc21 (stereo not drawn) [Example 23, 5-chloro-3-hydroxy-3-(2-oxo-2-(pyridin-2-yl)ethyl)-1-propylindolin-2-one]			MTT, % protection (661W or C6 cells [1]; compound 10 nM): 73%,; activity at 0.01 µM (661W or C6 cells [2]): 73%
CCCCN1C(=O)C(O)(Cc2cccc(OC)c2)c2cc(Cl)ccc21 (stereo not drawn) [Example 42, 1-butyl-5-chloro-3-hydroxy-3-(3-methoxybenzyl)indolin-2-one]	69.8%,	71%	
COc1cc(CC2(O)C(=O)N(CC(C)C)c3ccccc32)cc(OC)c1OC (stereo not drawn) [Example 48, 3-hydroxy-1-isobutyl-3-(3,4,5-trimethoxybenzyl)indolin-2-one]	91%,	85%	
CCN1C(=O)C(Cc2cc(OC)cc(OC)c2)(OC(=O)c2ccccc2)c2cc(C)ccc21 (stereo not drawn) [Example 38, 3-(3,5-dimethoxybenzyl)-1-ethyl-5-methyl-2-oxoindolin-3-yl benzoate]	84.1%,	78%	
CCCN1C(=O)C(O)(CC(=O)c2c[nH]c3ccccc23)c2cc(C)ccc21 (stereo not drawn) [Example 24, 3-(2-(1H-indol-3-yl)-2-oxoethyl)-3-hydroxy-5-methyl-1-propylindolin-2-one]	69%,		activity at 0.01 µM (661W or C6 cells [2]): 59%
CCCN1C(=O)C(O)(CC(=O)c2cccc(OC)n2)c2cc(C)ccc21 (stereo not drawn) [Example 26, 3-hydroxy-3-(2-(6-methoxypyridin-2-yl)-2-oxoethyl)-5-methyl-1-propylindolin-2-one]		62%	MTT, % protection (661W or C6 cells [1]; compound 10 nM): 83.8%,
CCN1C(=O)C(Cc2cc(OC)ccc2O)(OC(=O)c2ccccc2)c2cc(Cl)ccc21 (stereo not drawn) [Example 62, 5-chloro-1-ethyl-3-(2-hydroxy-5-methoxybenzyl)-2-oxoindolin-3-yl benzoate]			MTT, % protection (661W or C6 cells [1]; compound 800 pM): 86.4%,; activity at 0.0008 µM (661W or C6 cells [2]): 70%
COc1cc(CC2(OC(=O)c3ccccc3)C(=O)N(CC(C)C)c3ccc(Cl)cc32)cc(OC)c1OC (stereo not drawn) [Example 35, 5-chloro-1-isobutyl-2-oxo-3-(3,4,5-trimethoxybenzyl)indolin-3-yl benzoate]			MTT, % protection (661W or C6 cells [1]; compound 800 pM): 113.5%,; activity at 0.0008 µM (661W or C6 cells [2]): 55%
COc1ccc(O)c(CC2(OC(=O)c3ccccc3)C(=O)N(CCc3ccccc3)c3ccc(Cl)cc32)c1 (stereo not drawn) [Example 61, 5-chloro-3-(2-hydroxy-5-methoxybenzyl)-2-oxo-1-phenethylindolin-3-yl benzoate]	87.1%,	67%	
O=C1N(CCN2CCCCC2)c2ccc(Cl)cc2C1(O)Cc1ccccn1 (stereo not drawn) [Example 4, 5-chloro-3-hydroxy-1-(2-(piperidin-1-yl)ethyl)-3-(pyridin-2-ylmethyl)indolin-2-one]		69%	MTT, % protection (661W or C6 cells [1]; compound 800 pM): 61.5%,
CCCN1C(=O)C(O)(CC(=O)c2cccc(OC)n2)c2cc(Cl)cc(Cl)c21 (stereo not drawn) [Example 30, 5,7-dichloro-3-hydroxy-3-(2-(6-methoxypyridin-2-yl)-2-oxoethyl)-1-propylindolin-2-one]	69%,	59%	
